# Reference: US4645760A, “Activated aminoglycosides and aminoglycoside-aminocyclitols pharmaceutical compositions and method of use” (priority 1983, dated 1987)
# Where a name gives a salt, the structure may show the parent alone.
# Assays:
# [1] = tested on: epinephrine autoxidation; experiment: epinephrine autoxidation inhibition assay (oxygen radical reactivity); assay type: biochemical; details: for IC50: 25° C., 0.1M sodium carbonate, pH 10.2, A320, sulfate form, read-out: (A) Molarity for 50% inhibition of epinephrine autoxidation; for relative molar ratio for 50% inhibition: KM:SM:NM:GM; for B/A Molar ratio (epinephrine molarity / molarity for 50% inhibition): pH 10.2, 25° C.
# Procedure: The oxygen radical reactivity of 4-aminoglycosides KM, streptomycin (SM), neomycin (NM), and gentamicin (GM) was tested using a previously described modification of the commonly used epinephrine autoxidation assay. […] Further studies are required to determine the identification of the reacting active oxygen species (e.g. singlet oxygen, hydroperoxy radicals, superoxide radicals, hydroxyl radicals, or others).
# Reactions were performed at 25° C.; in 0.1M sodium carbonate, pH 10.2. Absorbance at 320 nm (A320) as measured with a Varian model 219 spectrophotometer. Antibiotics (Sigma) were used in the sulfate form; the working molecular weight reflects the anhydrous weight of the base. At least five aminoglycoside concentrations, each replicated four times, were used to estimate the 50% epinephrine autoxidation inhibition value. Epinephrine concentrations yielding between 0.23 and 0.27 ΔA320 per minute was the basis for calculating the percent of inhibition. The data were analyzed by linear regression; standard deviations are shown.
# When the unactivated aminoglycoside-aminocyclitol compounds are added at pH=10.2 to a cuvette containing epinephrine and 0.1 molar carbonate buffer, the aminoglycosides block the autoxidation of epinephrine to adrenochrome on approximately a mole-to-mole basis. This blockade is monitored spectrophotometrically at 320 nm and is a linear function of drug concentration. Using 9×10^-4 molar epinephrine, the linear region extends from 10^-5 to 10^-3 molar aminoglycoside. The sensitivity of this assay can be extended by lowering the starting epinephrine concentration.
# [2] = tested on: B. subtilis; experiment: antibiotic disc diffusion after riboflavin/methionine/UV activation; assay type: cell-based; details: for potency enhancement of mixture of activated compound and parent compound: 2.8×10^-5 M riboflavin, 0.01M methionine, half hour uv light; for potency after coincubation with irradiated riboflavin vs riboflavin-free parent solution: Example 5, methionine, 365 nm, half hour
# Procedure: The parent compounds in the above table were subjected to two synthetic activation processes according to the present invention. As set forth below, the parent compound was incubated with 2.8×10^-5 M riboflavin and 0.01M methionine (a hydrogen donor) for a half hour in the presence of a uv light.
# A solution of […] riboflavin, and a hydrogen donor such as 0.01M methionine, was irradiated with ultraviolet light at 365 nm for a half hour to produce oxygen-free radicals.
# [3] = tested on: superoxide free radicals; experiment: block of nitro-blue tetrazolium (NBT) reduction by superoxide; assay type: biochemical; details: photoreduced riboflavin or xanthine-xanthine oxidase; 560 nm; unactivated aminoglycosides
# Description: (§1) The auto-oxidation of epinephrine is blocked on a mole-to-mole basis by aminoglycosides and aminoglycoside-aminocyclitols. […] Other colorimetric or chemiluminescence assays for superoxide or hydroxyl radicals which use dyes or other reagents that can develop color selectively in the presence of these radicals can also form the basis of rapid photometric assays for parent aminoglycoside and aminoglycoside-aminocyclitol levels in biological or other aqueous solutions. The degree to which colored products are blocked by the aminoglycoside or the aminoglycoside-aminocyclitol compound would be directly proportional to the concentration of aminoglycosides and aminoglycoside-aminocyclitol compounds. Representative dyes and reactants include the following non-limitative list:
# This is spectrophotometrically monitored at 560 nm, where the maximum absorbance of reduced NBT occurs. This procedure decreases in sensitivity at pH's higher than 7.0 and at very high (millimolar) drug concentrations. The reason for these limits is that superoxide reacts with aminoglycosides to generate a reducing compound which can interfere with the assay by directly reducing NBT.
# [4] = tested on: Pseudomonas aeruginosa (ATCC 22853); experiment: disc inhibition zone, Pseudomonas aeruginosa (Table 1); assay type: cell-based; details: ATCC22853, read-out: mm inhibition zone due to 40 μgm/disc, organism - Pseudomonas aeruginosa
# Procedure: (§2) ^1 9 ml antibiotic #5 agar (Difco), was poured warm into 15 ×
# (§3) 100 mm Plastic petri dishes and seeded with test bacteria to a density of
# (§4) 2 × 10^6 bacteria per ml (except B. subtilis which was seeded a
# (§5) in item 2 below). Q uarter inch sterile filter discs were placed on the
# (§6) agars and loaded with 20 microliters of test solutions at concentrations
# (§7) of 2000 and 200 ppm. The antibiotic amounts therefore were 40
# (§8) micrograms/disc or 4 micrograms/disc. Slopes were based on duplicate
# (§9) tests of each substance at these two concentrations. All substances, each
# (§10) at two concentrations were tested on each plate. Data were averaged.
# (§11) ^3 Concentration of compound 4 MM 0500a1 was adjusted to represent th
# (§12) total organic content. That is, 2000 ppm means 2000 parts organic materia
# (§13) per million parts water.
# [5] = tested on: E. Coli (ATC 25922); experiment: disc inhibition zone, E. Coli (Table 1); assay type: cell-based; details: for zone of inhibition at 40 µg/disc: Escherichia coli, read-out: mm inhibition zone due to 40 μgm/disc, organism - E. Coli; for mm inhibition zone, E. Coli per log concentration antibiotic: slope, 2000 and 200 ppm
# Procedure: as §2, §3, §4, §5, §6, §7, §8, §9, §10, §11, §12, §13
# [6] = tested on: Bacillus subtilis; experiment: disc inhibition zone, Bacillus subtilis (Table 1); assay type: cell-based; details: for zone of inhibition at 40 µg/disc: Bacillus subtilis, 40 μgm/disc, 30 degrees, 18 hours, read-out: mm inhibition zone due to 40 μgm/disc, organism - Bacillus subtilis; for mm inhibition zone, B. subtilis per log concentration antibiotic: slope by regression
# Procedure: ^2 9 ml antibiotic #5 media (Difco), seeded to a concentration of 0.2
# microliters of B. subtilis spores/500 ml agar, was dispensed into 15
# × 100 ml plastic petri dishes. One quarter inch Schleicher and
# Schuell sterile filter discs were placed on the agar and loaded with 20
# microliters of dilutions of test compound including dilutions of 2000 ppm
# 600 ppm, 200 ppm, 60 ppm, and 20 ppm. The plates were incubated overnight
# at 30 degrees centigrade, the inhibition zones measured at 18 hours. All
# values were based on 6 tests at a given concentration; each plate was
# corrected to an average kill zone due to 20 microliters of neomycin B bas
# at a concentration of 30 ppm. Slopes and kill zones for 40 microgramloade
# discs were obtained usi ng regression analysis.
# as §11, §12, §13
# [7] = tested on: S. aureus (ATCC 25923); experiment: disc inhibition zone, S. aureus (Table 1); assay type: cell-based; details: for zone of inhibition at 40 µg/disc: Staphylococcus aureus, ATCC25923, read-out: mm inhibition zone due to 40 μgm/disc, Staphylococcus aureus (printed "coccus aureus"); for mm inhibition zone, S. aureus per log concentration antibiotic: slope, 2000 and 200 ppm
# Procedure: as §2, §3, §4, §5, §6, §7, §8, §9, §10, §11, §12, §13
# [8] = tested on: Pseudomonas maltophilispp.; experiment: disc inhibition zone, Pseudomonas maltophilia (Table 1); assay type: cell-based; details: read-out: mm inhibition zone due to 40 μgm/disc, organism - Pseudomonas maltophilispp.
# Procedure: as §2, §3, §4, §5, §6, §7, §8, §9, §10, §11, §12, §13
# [9] = assay type: physicochemical
# [10] = tested on: hydroxyl free radicals; experiment: hydroxyl free radical spin-adduct formation by Electron Paramagnetic Resonance; assay type: biochemical; details: spin traps ntb or DMPO; xanthine/xanthine oxidase, pH 7.8; millimolar drug
# Description: as §1
# Two spin traps were examined with the same conclusion, nitrosotertiary-butyl (ntb) and 5,5-dimethyl-1-pyrroline-1-oxide. The reaction mixture used to produce hydroxyl radical included 10^-4 M xanthine, 6×10^-8 M xanthine oxidase, 10^-3 EDTA, 10^-4 M spin trap (DMPO or ntb), 8.9×10^-5 M H2 O2, 0.1M potassium phosphate buffer; final pH--7.8. The free radical signals were directly monitored with and without the antibiotics by using the techniques of Electron Paramagnetic Resonance starting 2 minutes after reaction initiation. The scan range=100 Gauss; time constant=0.064 sec; modulation amplitude=1 Gauss; Microwave power=1 Mw; Microwave frequency=9.418 GHz; Field set=3350 Gauss; scan time=20 seconds; modulation frequency=100 KHz. AH =AN =14.9 G.
# [11] = tested on: bacteria (E. coli, Pseudomona aeruginosa); experiment: bacterial killing by aminoglycosides (gentamicin, kanamycin) with coincubated enzyme; assay type: cell-based; details: coincubation, extracellular enzyme
Molecule,IC50 [1] [µM],relative molar ratio for 50% inhibition [1],B/A Molar ratio (epinephrine molarity / molarity for 50% inhibition) [1],potency enhancement of mixture of activated compound and parent compound [2] [%],potency after coincubation with irradiated riboflavin vs riboflavin-free parent solution [2],NBT reduction rate / blockade [3],hydroxyl free radical spin-adduct formation [10],other results
"NC[C@H]1O[C@H](O[C@H]2[C@H](O)[C@@H](O[C@H]3O[C@H](CO)[C@@H](O)[C@H](N)[C@H]3O)[C@H](N)C[C@@H]2N)[C@H](O)[C@@H](O)[C@@H]1O [KM, kanamycin]",700 ± 100,~ 6,1.11,25,enhanced potency,the rate of NBT reduction is slowed proportionally to the concentration of aminoglycoside,–,epinephrine autoxidation blocked ([1]; fourfold molar excess of KM): 97%
"NC[C@@H]1O[C@H](O[C@H]2[C@@H](O)[C@H](O[C@@H]3[C@@H](O)[C@H](N)C[C@H](N)[C@H]3O[C@H]3O[C@H](CN)[C@@H](O)[C@H](O)[C@H]3N)O[C@@H]2CO)[C@H](N)[C@@H](O)[C@@H]1O [NM, neomycin]",2100 ± 140,~2,0.39,100,enhanced potency,–,–,–
"NC[C@@H]1O[C@H](O[C@H]2[C@@H](O)[C@H](O[C@@H]3[C@@H](O)[C@H](N)C[C@H](N)[C@H]3O[C@H]3O[C@H](CN)[C@@H](O)[C@H](O)[C@H]3N)O[C@@H]2CO)[C@H](N)[C@@H](O)[C@@H]1O [NMb, Neomycin B base]",–,–,–,–,–,the rate of NBT reduction is slowed proportionally to the concentration of aminoglycoside,–,"zone of inhibition at 40 µg/disc [4]: 10.7 mm; zone of inhibition at 40 µg/disc [5]: 14.9 mm; mm inhibition zone, E. Coli per log concentration antibiotic [5]: 5.5 mm per log concentration; zone of inhibition at 40 µg/disc [6]: 23.3 mm; mm inhibition zone, B. subtilis per log concentration antibiotic [6]: 5.6 mm per log concentration; zone of inhibition at 40 µg/disc [7]: 17.2 mm; mm inhibition zone, S. aureus per log concentration antibiotic [7]: 6.1 mm per log concentration; zone of inhibition at 40 µg/disc [8]: 8.3 mm; solubility in DMSO [9]: DMSO- insoluble"
"NC[C@H]1O[C@H](O[C@H]2[C@H](O)[C@@H](O)[C@H](N)C[C@@H]2N)[C@H](N)[C@@H](O)[C@@H]1O [Neomycin A base (neamine), Neomycin A base]",–,–,–,–,–,–,–,"zone of inhibition at 40 µg/disc [4]: 0 mm; zone of inhibition at 40 µg/disc [5]: 24.7 mm; mm inhibition zone, E. Coli per log concentration antibiotic [5]: 7.8 mm per log concentration; zone of inhibition at 40 µg/disc [6]: 33.8 mm; mm inhibition zone, B. subtilis per log concentration antibiotic [6]: 7.0 mm per log concentration; zone of inhibition at 40 µg/disc [7]: 29.8 mm; mm inhibition zone, S. aureus per log concentration antibiotic [7]: 9.4 mm per log concentration; zone of inhibition at 40 µg/disc [8]: 0 mm"
"[H]/N=C(/N)N[C@H]1[C@H](O)[C@@H](O)[C@H](O[C@@H]2O[C@@H](C)[C@](O)(C=O)[C@H]2O[C@@H]2O[C@@H](CO)[C@H](O)[C@@H](O)[C@@H]2NC)[C@@H](N/C(N)=N\[H])[C@@H]1O [SM, streptomycin]",740 ± 100,~ 6,1.08,18,enhanced potency,–,–,–
NC[C@H]1O[C@H](O[C@H]2[C@H](O)[C@@H](O[C@H]3O[C@H](CO)[C@@H](O)[C@H](N)[C@H]3O)[C@H](N)C[C@@H]2N)[C@H](O)[C@@H](O)[C@@H]1O [kanamycin sulfate],–,–,–,–,–,–,prevented in a concentration-dependent manner,–
"NC[C@@H]1O[C@H](O[C@H]2[C@@H](O)[C@H](O[C@@H]3[C@@H](O)[C@H](N)C[C@H](N)[C@H]3O[C@H]3O[C@H](CN)[C@@H](O)[C@H](O)[C@H]3N)O[C@@H]2CO)[C@H](N)[C@@H](O)[C@@H]1O [neoomycin B sulfate, neomycin B sulfate]",–,–,–,–,–,–,prevented in a concentration-dependent manner,–
[H]/N=C(/N)N[C@H]1[C@H](O)[C@@H](O)[C@H](O[C@@H]2O[C@@H](C)[C@](O)(C=O)[C@H]2O[C@@H]2O[C@@H](CO)[C@H](O)[C@@H](O)[C@@H]2NC)[C@@H](N/C(N)=N\[H])[C@@H]1O [streptomycin sulfate],–,–,–,–,–,–,prevented in a concentration-dependent manner,–
Catalase,–,–,–,–,–,–,–,"effect on bacterial killing by aminoglycosides (gentamicin, kanamycin) [11]: Catalase blockade occurs alone"
gentamicin [GM],4400 ± 460,~1,0.19,167,enhanced potency,the rate of NBT reduction is slowed proportionally to the concentration of aminoglycoside,–,–
